From US10717716B2, “1,3,4-oxadiazole derivative compounds as histone deacetylase 6 inhibitor, and the pharmaceutical composition comprising the same” (Chong Kun Dang Pharmaceutical Corp., priority 2015, dated 2020) come the findings set out here.

Each structure is given as a SMILES string.

One test concerns the target T1, human recombinant HDAC1 (Homo sapiens, UniProt Q13547).
T1 construct: purchased Enzo Life Science BML-SE456
The experiment in a line: HDAC1 enzyme activity inhibition assay (HDAC Fluorimetric Drug Discovery Kit). The note with it: human recombinant HDAC1, Fluor de Lys substrate 10 μM, 30° C. 60 minutes. Type of test: biochemical. Here is the method:
In order to examine the HDAC6 selectivity of the compounds of formula I of the present invention by HDAC1 and HDAC6 enzymatic activity inhibition assays, an experiment was performed using a conventional substance as a control.
HDAC enzyme activity was measured using a HDAC Fluorimetric Drug Discovery Kit (BML-AK511, 516, Enzo Life Science). For the HDAC1 enzyme activity test, human recombinant HDAC1 (BML-SE456) was used as an enzyme source, and Fluor de Lys®-“SIRT1 (BNL-KI177) was used as a substrate. A 5-fold dilution of the compound was seeded into a 96-well plate, and then 0.3 μg of the enzyme and 10 μM of the substrate were added to each well of the plate and allowed to react at 30° C. for 60 minutes. Then, Fluor de Lys®-Developer II (BML-KI176) was added thereto and allowed to react for 30 minutes, after which the fluorescence value (Ex 360, Em 460) was measured using a multi-plate reader (Flexstation 3, Molecular Device). The HDAC6 enzyme was tested using human recombinant HDAC6 (382180) (Calbiochem) according to the same protocol as the HDAC1 enzyme activity test method. Based on the resulting values, each IC5, value was calculated using GraphPad Prism4.0 program.

The target in a further test is T2, human recombinant HDAC6 (Homo sapiens, UniProt Q9UBN7).
T2 construct: purchased Calbiochem 382180
T2 sequence (Q9UBN7 1-1215): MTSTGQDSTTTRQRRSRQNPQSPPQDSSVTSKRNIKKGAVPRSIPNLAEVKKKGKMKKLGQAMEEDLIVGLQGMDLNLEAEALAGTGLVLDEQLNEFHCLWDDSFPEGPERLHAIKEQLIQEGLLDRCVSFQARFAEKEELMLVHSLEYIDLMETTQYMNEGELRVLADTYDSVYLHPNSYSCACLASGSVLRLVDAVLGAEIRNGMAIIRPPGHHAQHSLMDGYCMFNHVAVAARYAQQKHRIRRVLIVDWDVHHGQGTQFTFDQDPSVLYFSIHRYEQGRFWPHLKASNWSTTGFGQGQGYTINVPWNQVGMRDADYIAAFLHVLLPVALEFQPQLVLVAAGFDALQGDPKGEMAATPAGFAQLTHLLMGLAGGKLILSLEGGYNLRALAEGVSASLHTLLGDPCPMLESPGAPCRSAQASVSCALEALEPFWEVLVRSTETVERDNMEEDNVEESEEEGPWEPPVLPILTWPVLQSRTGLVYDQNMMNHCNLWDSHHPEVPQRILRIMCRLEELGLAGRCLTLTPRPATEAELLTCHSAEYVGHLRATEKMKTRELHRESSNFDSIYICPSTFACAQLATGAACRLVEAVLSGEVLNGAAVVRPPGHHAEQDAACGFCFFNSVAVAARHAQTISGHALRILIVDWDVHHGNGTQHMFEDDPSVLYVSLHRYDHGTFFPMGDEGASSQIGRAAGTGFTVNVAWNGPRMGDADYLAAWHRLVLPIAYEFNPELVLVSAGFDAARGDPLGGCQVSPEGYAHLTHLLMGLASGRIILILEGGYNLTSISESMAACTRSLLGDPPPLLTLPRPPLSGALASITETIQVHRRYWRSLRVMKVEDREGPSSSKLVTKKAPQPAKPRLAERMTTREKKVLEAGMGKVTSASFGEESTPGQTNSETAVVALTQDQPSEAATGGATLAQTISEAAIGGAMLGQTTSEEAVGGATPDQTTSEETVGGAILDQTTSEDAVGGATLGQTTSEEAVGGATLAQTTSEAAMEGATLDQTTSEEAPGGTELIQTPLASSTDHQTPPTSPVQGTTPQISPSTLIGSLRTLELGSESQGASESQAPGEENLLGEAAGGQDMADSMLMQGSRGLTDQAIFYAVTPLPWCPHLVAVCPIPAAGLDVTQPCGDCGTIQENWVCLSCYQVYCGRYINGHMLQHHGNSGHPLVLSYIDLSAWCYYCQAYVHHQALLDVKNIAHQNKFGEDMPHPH
The experiment in a line: HDAC6 enzyme activity inhibition assay (HDAC Fluorimetric Drug Discovery Kit). Particulars: for HDAC6 selectivity (fold): HDAC6 over HDAC1; for IC50: human recombinant HDAC6, same protocol as HDAC1, read-out: HDAC6. The test is classed as biochemical. The gist of the method:
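Human recombinant HDAC1 or HDAC6 (0.3 μg) reacted with 10 μM Fluor de Lys-SIRT1 substrate and 5-fold compound dilutions for 60 min at 30 °C. Developer II added for 30 min, fluorescence read at Ex 360/Em 460; IC50 calculated from the readings.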

T1 sequence (Q13547 whole entry): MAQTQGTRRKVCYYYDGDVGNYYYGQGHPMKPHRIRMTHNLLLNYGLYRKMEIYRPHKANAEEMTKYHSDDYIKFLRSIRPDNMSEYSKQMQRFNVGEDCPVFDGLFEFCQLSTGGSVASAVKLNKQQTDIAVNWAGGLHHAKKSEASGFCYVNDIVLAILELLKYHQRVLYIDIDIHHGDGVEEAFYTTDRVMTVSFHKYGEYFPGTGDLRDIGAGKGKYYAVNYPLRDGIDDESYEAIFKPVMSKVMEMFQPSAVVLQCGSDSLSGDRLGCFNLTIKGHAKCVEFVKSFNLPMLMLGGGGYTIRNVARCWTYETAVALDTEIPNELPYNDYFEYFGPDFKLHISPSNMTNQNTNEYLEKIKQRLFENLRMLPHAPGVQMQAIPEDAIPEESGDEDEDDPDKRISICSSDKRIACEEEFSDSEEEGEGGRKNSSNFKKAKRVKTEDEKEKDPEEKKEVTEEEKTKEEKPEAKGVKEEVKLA

Regarding `O=C(N1CCOCC1)N(Cc1ccc(-c2nnc(C(F)(F)F)o2)cc1)c1ccccc1` [Compound 21249, N-phenyl-N-(4-(5-(trifluoromethyl)-1,3,4-oxadiazol-2-yl)benzyl)morpholine-4-carboxamide], the results for the IC50 on human recombinant HDAC1 and on human recombinant HDAC6 were 10 µM and 87 nM, respectively. Further, at human recombinant HDAC6, the “HDAC6 selectivity (fold)” value came out at 115 fold.
The corresponding values for `O=C(N1CCS(=O)(=O)CC1)N(Cc1ccc(-c2nnc(C(F)(F)F)o2)cc1)c1ccc(F)cc1` [Compound 21389, N-(4-Fluorophenyl)-N-(4-(5-(trifluoromethyl)-1,3,4-oxadiazol-2-yl)benzyl)thiomorpholine-4-carboxamide 1,1-dioxide] are 6.36 µM, 93 nM and 68 fold.
The matching figures for `COc1ccc(N(Cc2ccc(-c3nnc(C(F)(F)F)o3)cc2)C(=O)N2CCS(=O)(=O)CC2)cc1` [Compound 21390, N-(4-methoxyphenyl)-N-(4-(5-(trifluoromethyl)-1,3,4-oxadiazol-2-yl)benzyl)thiomorpholine-4-carboxamide 1,1-dioxide]: 5.28 µM, 317 nM and 17 fold.
In the case of `O=C(N1CCS(=O)(=O)CC1)N(Cc1ccc(-c2nnc(C(F)(F)F)o2)cc1)c1cccc(Br)c1` [Compound 21393, N-(3-bromophenyl)-N-(4-(5-(trifluoromethyl)-1,3,4-oxadiazol-2-yl)benzyl)thiomorpholine-4-carboxamide 1,1-dioxide], the IC50 turned out to be 8.96 µM on human recombinant HDAC1 and 137 nM at human recombinant HDAC6. In addition, the “HDAC6 selectivity (fold)” value on human recombinant HDAC6 is reported as 65 fold.
On to `O=C(N1CCS(=O)(=O)CC1)N(Cc1ccc(-c2nnc(C(F)(F)F)o2)cc1)c1cccc(-c2ccoc2)c1` [Compound 21435, N-(3-(furan-3-yl)phenyl)-N-(4-(5-(trifluoromethyl)-1,3,4-oxadiazol-2-yl)benzyl)thiomorpholine-4-carboxamide 1,1-dioxide], for which the IC50 at human recombinant HDAC1 is 3.38 µM. At human recombinant HDAC6, the “HDAC6 selectivity (fold)” value is 12 fold and the IC50 came to 286 nM.
The corresponding values for `O=C(N1CCS(=O)(=O)CC1)N(Cc1ccc(-c2nnc(C(F)(F)F)o2)cc1)c1cccc(-c2cccnc2)c1` [Compound 21436, N-(3-(pyridin-3-yl)phenyl)-N-(4-(5-(trifluoromethyl)-1,3,4-oxadiazol-2-yl)benzyl)thiomorpholine-4-carboxamide 1,1-dioxide] are 5.73 µM, 13 fold and 433 nM.
The matching figures for `O=C(N1CCS(=O)(=O)CC1)N(Cc1ccc(-c2nnc(C(F)(F)F)o2)cc1)c1cccc(-c2ccc3c(c2)OCO3)c1` [Compound 21437, N-(3-(benzo[d][1,3]dioxol-5-yl)phenyl)-N-(4-(5-(trifluoromethyl)-1,3,4-oxadiazol-2-yl)benzyl)thiomorpholine-4-carboxamide 1,1-dioxide]: 8.22 µM, 11 fold and 740 nM.
With `Cn1ncc2ccc(-c3cccc(N(Cc4ccc(-c5nnc(C(F)(F)F)o5)cc4)C(=O)N4CCS(=O)(=O)CC4)c3)cc21` [Compound 21438, N-(3-(1-methyl-1H-indazol-6-yl)phenyl)-N-(4-(5-(trifluoromethyl)-1,3,4-oxadiazol-2-yl)benzyl)thiomorpholine-4-carboxamide 1,1-dioxide], the IC50 on human recombinant HDAC1 is 2.7 µM. Besides, on human recombinant HDAC6, the “HDAC6 selectivity (fold)” value is reported as 4 fold and the IC50 was 750 nM.
The matching figures for `O=C(N1CCS(=O)(=O)CC1)N(Cc1ccc(-c2nnc(C(F)(F)F)o2)cc1)c1cccc(-c2ccccc2)c1` [Compound 21439, N-([1,1′-biphenyl]-3-yl)-N-(4-(5-(trifluoromethyl)-1,3,4-oxadiazol-2-yl)benzyl)thiomorpholine-4-carboxamide 1,1-dioxide]: 6.11 µM, 6 fold and 1010 nM.
The corresponding values for `COc1cccc(N(Cc2ccc(-c3nnc(C(F)(F)F)o3)cc2)C(=O)N2CCS(=O)(=O)CC2)c1` [Compound 21441, N-(3-methoxyphenyl)-N-(4-(5-(trifluoromethyl)-1,3,4-oxadiazol-2-yl)benzyl)thiomorpholine-4-carboxamide 1,1-dioxide] are 2.53 µM, 18 fold and 139 nM.
As for `Cc1cccc(N(Cc2ccc(-c3nnc(C(F)(F)F)o3)cc2)C(=O)N2CCS(=O)(=O)CC2)c1` [Compound 21442, N-(m-tolyl)-N-(4-(5-(trifluoromethyl)-1,3,4-oxadiazol-2-yl)benzyl)thiomorpholine-4-carboxamide 1,1-dioxide], the IC50 at human recombinant HDAC1 stood at 8.73 µM. In addition, at human recombinant HDAC6, the “HDAC6 selectivity (fold)” value amounted to 77 fold and the IC50 was found to be 114 nM.
The matching figures for `CS(=O)(=O)c1ccc(N(Cc2ccc(-c3nnc(C(F)(F)F)o3)cc2)C(=O)N2CCOCC2)cc1` [Compound 21443, N-(4-(methylsulfonyl)phenyl)-N-(4-(5-(trifluoromethyl)-1,3,4-oxadiazol-2-yl)benzyl)morpholine-4-carboxamide]: 7.44 µM, 20 fold and 366 nM.
Turning to `O=C(N1CCOCC1)N(Cc1ccc(-c2nnc(C(F)F)o2)cc1F)c1nccs1` [Compound 22018, N-(4-(5-(Difluoromethyl)-1,3,4-oxadiazol-2-yl)-2-fluorobenzyl)-N-(thiazol-2-yl)morpholine-4-carboxamide], at human recombinant HDAC6, the “HDAC6 selectivity (fold)” value is 4 fold and the IC50 worked out at 2390 nM.
As for `O=C(N1CCOCC1)N(Cc1ccc(-c2nnc(C(F)F)o2)cc1F)c1cccs1` [Compound 22019, N-(4-(5-(Difluoromethyl)-1,3,4-oxadiazol-2-yl)-2-fluorobenzyl)-N-(thiophen-2-yl)morpholine-4-carboxamide], on human recombinant HDAC6, the “HDAC6 selectivity (fold)” value is recorded as 79 fold and the IC50 is 127 nM.
The matching figures for `O=C(N1CCS(=O)(=O)CC1)N(Cc1ccc(-c2nnc(C(F)F)o2)cc1F)c1cccs1` [Compound 22020, N-(4-(5-(Difluoromethyl)-1,3,4-oxadiazol-2-yl)-2-fluorobenzyl)-N-(thiophen-2-yl)thiomorpholine-4-carboxamide 1,1-dioxide]: 73 fold and 138 nM.
For the compound `O=C(N1CCS(=O)(=O)CC1)N(Cc1ccc(-c2nnc(C(F)F)o2)cc1F)c1ccsc1` [Compound 22021, N-(4-(5-(Difluoromethyl)-1,3,4-oxadiazol-2-yl)-2-fluorobenzyl)-N-(thiophen-3-yl)thiomorpholine-4-carboxamide 1,1-dioxide], on human recombinant HDAC6, the “HDAC6 selectivity (fold)” value was determined as 101 fold and the IC50 came to 99 nM.
Regarding `CCN1CCN(Cc2cccc(N(Cc3ccc(-c4nnc(C(F)F)o4)cc3F)C(=O)N3CCS(=O)(=O)CC3)c2)CC1` [Compound 22024, N-(4-(5-(difluoromethyl)-1,3,4-oxadiazol-2-yl)-2-fluorobenzyl)-N-(3-((4-ethylpiperazin-1-yl)methyl)phenyl)thiomorpholine-4-carboxamide 1,1-dioxide], at human recombinant HDAC6, the “HDAC6 selectivity (fold)” value was found to be 36 fold and the IC50 was determined as 281 nM.
